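Values below derive from 48-hour exposures of cells grown in 96-well plates, with endpoints linearly interpolated between the two concentrations bracketing the appropriate inhibition level. The concentration for full growth arrest is given as TGI.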

What all share (assay): DTP human tumour cell line panel, 48 h
In test [1] the test system is 786-0 renal.
Test [2] has as its system CAKI-1 renal.
The subject of test [3] is HCT-116 colon.
In test [4] the test system is IGROV1 ovarian.
The test system of test [5] is MDA-MB-231 breast.
Test [6] concerns MDA-N.
Test [7] relates to MOLT-4 leukemia.
Test [8] deals with NCI-H460 lung.
The subject of test [9] is OVCAR-4 ovarian.
The test system of test [10] is OVCAR-5 ovarian.
The subject of test [11] is OVCAR-8 ovarian.
In test [12] the test system is PC-3 prostate.
For test [13], the system named is SK-OV-3 ovarian.
The test system of test [14] is SN12C renal.
Test [15] concerns UACC-62 melanoma.

With `COC(=O)C1CCC(=O)N1CN(C(C)=O)c1cccc(O)c1` (stereo unspecified), the TGI in test [1], in test [2], in test [3], in test [4], in test [5] and in test [6] was over 100 µM each time. In addition, the TGI in [7], in [8], in [9], in test [10], in [11] and in [12] was over 100 µM throughout. For the same molecule, the TGI in [13], in [14] and in test [15] was over 100 µM each time.
With `Cc1ccc(S[C@@](C=O)(NC(=O)OCc2ccccc2)C(F)(F)F)cc1`, the TGI in test [1] came out at 47.5 µM; in test [2], 63.8 µM; in test [3], 36.7 µM; in test [4], 54.3 µM; in [5], 58.7 µM; in test [6] it was 58.5 µM. Moreover, the TGI in test [7] was 52 µM; in test [8] it was 79.3 µM; in test [9], over 100 µM; in [10], 54.8 µM; in [11], 43.7 µM; in test [12] it was 54.9 µM. Moreover, the concentration for total growth inhibition (TGI) in test [13] is over 100 µM; in [14] it was 91.7 µM; in [15], 40.4 µM.
Take `COC(CN(C)C(=S)Nc1cccc2ccccc12)OC`: the TGI in test [1], in test [2], in test [3], in [4], in [5] and in test [6] was over 10 µM throughout. The TGI in [7], in test [8], in test [9], in test [11], in [12] and in test [13] was over 10 µM throughout. Also, the total growth inhibition concentration (TGI) in test [14] and in test [15] was over 10 µM each time.
`Cc1nc2sc3cccc(Cl)c3n2c(=O)c1N=Nc1ccc(Cl)cc1`: the TGI in test [1], in [2], in test [3], in test [4], in test [5] and in [6] was over 100 µM in each case. In addition, the TGI in test [7], in test [8], in test [9], in test [10], in test [11] and in test [12] was over 100 µM each time. The TGI in test [13] and in test [14] was over 100 µM in each case.
In the case of `O=c1[nH]c(N/N=C\C(O)C(O)C(O)C(O)CO)nc2ccccc12` (stereo unspecified), the TGI in test [1], in [2], in test [3], in [4], in test [5] and in test [6] was over 100 µM throughout. Also, the TGI in test [7], in [8], in [10], in test [11], in test [12] and in [13] was over 100 µM in each case. In addition, the TGI in test [14] and in test [15] was over 100 µM each time.
As to `COC(=O)c1c(C)cccc1/C=C1\Cc2ccc(C)c(C)c2C1=O`, the TGI in [1], in [2], in test [3], in test [4], in [5] and in test [6] was over 100 µM throughout. Besides, the TGI in [7], in test [8], in test [9], in [10], in test [11] and in [12] was over 100 µM in each case. The TGI in test [14] and in test [15] was over 100 µM in each case.
`N#Cc1sc2nc3ccccc3n2c1N`: the TGI in [1], in test [2], in test [3], in test [4], in [5] and in test [6] was over 100 µM in each case. Also, the TGI in [7], in test [9], in [10], in [11], in test [12] and in test [13] was over 100 µM throughout. The molecule also yielded a TGI in test [15] of over 100 µM.
On to `O=C(CCc1cc(O)cc(O)c1)NCCc1cc(O)cc(OCc2ccccc2)c1`, for which the TGI in [1], in [2], in [3], in test [4], in test [5] and in test [6] was over 100 µM throughout. Besides, the TGI in test [7] was 66.2 µM; in [8] it was 47.3 µM; in test [10], over 100 µM; in test [11] it was over 100 µM; in test [12] it was over 100 µM; in [13], over 100 µM. Besides, the TGI in test [14] and in test [15] was over 100 µM throughout.
In the case of `CC1(C)O[C@@H]2[C@@H](COC(C)(C)O[C@H]2C2SCCCS2)O1`, the TGI in test [1], in test [2], in test [3], in test [5], in test [6] and in [7] was over 100 µM each time. In addition, the TGI in test [8], in [9], in test [10], in test [11], in test [12] and in test [13] was over 100 µM throughout. In addition, the total growth inhibition concentration (TGI) in [14] and in test [15] was over 100 µM in each case.
Consider `COC1(OC)c2occc2C(=N)c2ccc(=O)oc21`, for which the TGI in test [1], in [2], in [3], in test [4], in test [5] and in [6] was over 100 µM in each case. Also, the TGI in test [7], in test [8], in test [9], in [10], in test [12] and in test [13] was over 100 µM in each case. Also, the TGI in test [14] and in [15] was over 100 µM each time.

In general, TGI refers to the concentration at which net growth stops. High values mean less potent growth arrest, low ones more potent growth arrest.

Values taken from PubChem BioAssay (NCI).
